According to patent US12162864B2, “Condensed-cyclic compound” (Takeda Pharmaceutical Company Limited, priority 2018, dated 2024):

Biological target: T1, human M1 receptor (Homo sapiens, UniProt P11229)
T1 construct: expressed in transfected cells; host or cells: CHO-K1
T1 sequence (P11229 1-460): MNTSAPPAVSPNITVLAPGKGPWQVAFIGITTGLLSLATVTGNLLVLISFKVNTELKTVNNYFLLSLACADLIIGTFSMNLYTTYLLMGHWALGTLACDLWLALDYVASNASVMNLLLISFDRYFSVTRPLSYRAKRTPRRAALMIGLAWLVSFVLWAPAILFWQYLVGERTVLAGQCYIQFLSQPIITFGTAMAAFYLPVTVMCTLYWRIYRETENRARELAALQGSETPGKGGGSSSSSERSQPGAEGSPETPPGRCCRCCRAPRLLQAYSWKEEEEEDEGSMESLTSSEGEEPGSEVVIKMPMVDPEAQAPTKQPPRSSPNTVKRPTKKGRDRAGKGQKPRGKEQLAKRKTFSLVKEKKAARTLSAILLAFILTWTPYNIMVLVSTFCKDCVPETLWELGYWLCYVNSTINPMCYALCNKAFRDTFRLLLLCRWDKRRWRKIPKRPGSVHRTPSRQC
Assay: Measurement of M1 receptor positive allosteric modulator (M1PAM) activity
Type: cell-based
Settings: PAM activity in presence of acetylcholine at EC20 concentration; CHO-K1 cells stably expressing human M1 receptor; IP1 time-resolved fluorescence
Description: Measurement of M1 Receptor Positive Allosteric Modulator (M1PAM) Activity
The activity of a test compound in the presence of acetylcholine at an EC20 concentration affording about 20% action of the maximum activity was measured as PAM activity. The method therefor is as follows. To a 384-well white plate (Greiner™) was added 4 μL of the test compound diluted with IP1 Stimulation buffer (CisBio™) containing 0.1% fatty acid-free BSA containing 80 nM acetylcholine. Freeze stock of CHO-K1 cells stably expressing human M1 receptor (hCHRMl) was prepared with IP1 Stimulation buffer (CisBio™) containing 0.1% fatty acid-free BSA, 4 μL thereof was added (10,000 cells/well) and the mixture was cultured in a 5% CO2 incubator at 37° C. for 1 hr. 4 μL of a solution (CisBio™) containing IP1-d2 and Anti-IP1-cryptate Tb conjugate was added the mixture was incubated at room temperature for 1 hr, and the time-resolved fluorescence signal was measured on an Envision plate reader (Perkin Elmer™). The activity (%) of the test compound was calculated by defining the value when acetylcholine was added at the final concentration of 20 μM as 100% and the value when DMSO was added instead of the test compound under acetylcholine-free conditions as 0%, and the EC50 value was calculated as a value of 50% of the concentration dependence curve of the test compound.

SMILES | EC50
Cn1cc(-c2ccc(Cc3cc(C(=O)N[C@H]4CCOC[C@@H]4O)c(F)c4c3OCC4)cc2)nn1 [Example 1, 1,5-anhydro-2,3-dideoxy-3-(((4-fluoro-7-(4-(1-methyl-1H-1,2,3-triazol-4-yl)benzyl)-2,3-dihydro-1-benzofuran-5-yl)carbonyl)amino)-L-threo-pentitol] | 3.1 nM
Cn1cc(-c2ccc(Cc3cc(C(=O)N[C@H]4CCOC[C@@H]4O)c(F)c4c3OCC4)cc2)cn1 [Example 2, 1,5-anhydro-2,3-dideoxy-3-(((4-fluoro-7-(4-(1-methyl-1H-pyrazol-4-yl)benzyl)-2,3-dihydro-1-benzofuran-5-yl)carbonyl)amino)-L-threo-pentitol] | 4.9 nM
O=C(N[C@H]1CCOC[C@@H]1O)c1cc(Cc2ccc(-n3cccn3)cc2)c2c(c1F)CCO2 [Example 9, 1,5-anhydro-2,3-dideoxy-3-(((4-fluoro-7-(4-(1H-pyrazol-1-yl)benzyl)-2,3-dihydro-1-benzofuran-5-yl)carbonyl)amino)-L-threo-pentitol] | 7.6 nM
O=C(N[C@H]1CCCC[C@@H]1O)c1cc(Cc2ccc(-n3cccn3)cc2)c2c(c1F)CCO2 [Example 10, 4-fluoro-N-((1S,2S)-2-hydroxycyclohexyl)-7-(4-(1H-pyrazol-1-yl)benzyl)-2,3-dihydro-1-benzofuran-5-carboxamide] | 17 nM
O=C(N[C@H]1COCC[C@@H]1O)c1cc(Cc2ccc(-n3cccn3)cc2)c2c(c1F)CCO2 [Example 11, 1,5-anhydro-2,4-dideoxy-2-(((4-fluoro-7-(4-(1H-pyrazol-1-yl)benzyl)-2,3-dihydro-1-benzofuran-5-yl)carbonyl)amino)-L-threo-pentitol] | 96 nM
CNC(=O)c1ccc(Cc2cc(C(=O)N[C@H]3CCOC[C@@H]3O)c(F)c3c2OCC3)cc1F [Example 12, 1,5-anhydro-2,3-dideoxy-3-(((4-fluoro-7-(3-fluoro-4-(methylcarbamoyl)benzyl)-2,3-dihydro-1-benzofuran-5-yl)carbonyl)amino)-L-threo-pentitol] | 11 nM
O=C(NC[C@@H]1CCCO1)c1ccc(Cc2cc(C(=O)N[C@H]3CCOC[C@@H]3O)c(F)c3c2OCC3)cc1F [Example 15, 1,5-anhydro-2,3-dideoxy-3-(((4-fluoro-7-(3-fluoro-4-(((2S)-tetrahydrofuran-2-ylmethyl)carbamoyl)benzyl)-2,3-dihydro-1-benzofuran-5-yl)carbonyl)amino)-L-threo-pentitol] | 4.9 nM
COc1c(C(=O)N[C@H]2CCOC[C@@H]2O)cc(Cc2ccc(-c3cn(C)nn3)cc2)c2c1CCO2 [Example 18, 1,5-anhydro-2,3-dideoxy-3-(((4-methoxy-7-(4-(1-methyl-1H-1,2,3-triazol-4-yl)benzyl)-2,3-dihydro-1-benzofuran-5-yl)carbonyl)amino)-L-threo-pentitol] | 6 nM
Cn1cc(-c2ccc(Cc3cc(C(=O)N[C@H]4CCOC[C@@H]4O)c(O)c4c3OCC4)cc2)nn1 [Example 20, 1,5-anhydro-2,3-dideoxy-3-(((4-hydroxy-7-(4-(1-methyl-1H-1,2,3-triazol-4-yl)benzyl)-2,3-dihydro-1-benzofuran-5-yl)carbonyl)amino)-L-threo-pentitol] | 43 nM
COCCNC(=O)c1ccc(Cc2cc(C(=O)N[C@H]3CCOC[C@@H]3O)c(OC)c3c2OCC3)cc1F [Example 32, 1,5-anhydro-2,3-dideoxy-3-(((7-(3-fluoro-4-((2-methoxyethyl)carbamoyl)benzyl)-4-methoxy-2,3-dihydro-1-benzofuran-5-yl)carbonyl)amino)-L-threo-pentitol] | 24 nM
COc1c(C(=O)N[C@H]2CCOC[C@@H]2O)cc(Cc2ccc(C(=O)NC[C@@H]3CCCO3)c(F)c2)c2c1CCO2 [Example 33, 1,5-anhydro-2,3-dideoxy-3-(((7-(3-fluoro-4-(((2S)-tetrahydrofuran-2-ylmethyl)carbamoyl)benzyl)-4-methoxy-2,3-dihydro-1-benzofuran-5-yl)carbonyl)amino)-L-threo-pentitol] | 11 nM
COc1c(C(=O)N[C@H]2CCOC[C@@H]2O)cc(Cc2ccc(C(=O)NC[C@H]3CCCO3)c(F)c2)c2c1CCO2 [Example 43, 1,5-anhydro-2,3-dideoxy-3-(((7-(3-fluoro-4-(((2R)-tetrahydrofuran-2-ylmethyl)carbamoyl)benzyl)-4-methoxy-2,3-dihydro-1-benzofuran-5-yl)carbonyl)amino)-L-threo-pentitol] | 96 nM
COc1c(C(=O)N[C@H]2CCOC[C@@H]2O)cc(Cc2ccc(-c3cn(C)nn3)cc2)c2c1CCC2 [Example 53, 1,5-anhydro-2,3-dideoxy-3-(((4-methoxy-7-(4-(1-methyl-1H-1,2,3-triazol-4-yl)benzyl)-2,3-dihydro-1H-inden-5-yl)carbonyl)amino)-L-threo-pentitol] | 3.2 nM
COc1c(C(=O)N[C@H]2CCOC[C@@H]2O)cc(Cc2ccc(-c3cnn(C)c3)nc2)c2c1CCC2 [Example 55, 1,5-anhydro-2,3-dideoxy-3-(((4-methoxy-7-((6-(1-methyl-1H-pyrazol-4-yl)pyridin-3-yl)methyl)-2,3-dihydro-1H-inden-5-yl)carbonyl)amino)-L-threo-pentitol] | 5.5 nM
CNC(=O)c1ccc(Cc2cc(C(=O)N[C@H]3CCOC[C@@H]3O)c(OC)c3c2CCC3)cc1F [Example 57, 1,5-anhydro-2,3-dideoxy-3-(((7-(3-fluoro-4-(methylcarbamoyl)benzyl)-4-methoxy-2,3-dihydro-1H-inden-5-yl)carbonyl)amino)-L-threo-pentitol] | 8.9 nM
COCCNC(=O)c1ccc(Cc2cc(C(=O)N[C@H]3CCOC[C@@H]3O)c(OC)c3c2CCC3)cc1F [Example 58, 1,5-anhydro-2,3-dideoxy-3-(((7-(3-fluoro-4-((2-methoxyethyl)carbamoyl)benzyl)-4-methoxy-2,3-dihydro-1H-inden-5-yl)carbonyl)amino)-L-threo-pentitol] | 9.4 nM
COc1c(C(=O)N[C@H]2CCOC[C@@H]2O)cc(Cc2ccc(C(=O)NC[C@@H]3CCCO3)c(F)c2)c2c1CCC2 [Example 59, 1,5-anhydro-2,3-dideoxy-3-(((7-(3-fluoro-4-(((2S)-tetrahydrofuran-2-ylmethyl)carbamoyl)benzyl)-4-methoxy-2,3-dihydro-1H-inden-5-yl)carbonyl)amino)-L-threo-pentitol] | 3.9 nM
COc1c(C(=O)N[C@H]2CCOC[C@@H]2O)cc(Cc2ccc(C(=O)NCCCS(C)(=O)=O)c(F)c2)c2c1CCC2 [Example 66, 1,5-anhydro-2,3-dideoxy-3-(((7-(3-fluoro-4-((3-(methylsulfonyl)propyl)carbamoyl)benzyl)-4-methoxy-2,3-dihydro-1H-inden-5-yl)carbonyl)amino)-L-threo-pentitol] | 12 nM
COc1c(C(=O)N[C@H]2CCOC[C@@H]2O)cc(Cc2ccc(C(=O)NC[C@H]3CCCO3)c(F)c2)c2c1CCC2 [Example 70, 1,5-anhydro-2,3-dideoxy-3-(((7-(3-fluoro-4-(((2R)-tetrahydrofuran-2-ylmethyl)carbamoyl)benzyl)-4-methoxy-2,3-dihydro-1H-inden-5-yl)carbonyl)amino)-L-threo-pentitol] | 32 nM
